Reference: US20230321187A1, “OCTOPUS-DERIVED PEPTIDE OCTOPROMYCIN HAVING ANTIBACTERIAL AND ANTI-BIOFILM ACTIVITY AGAINST ACINETOBACTER BAUMANNII” (priority 2020, published 2023)

What was measured:
A. baumannii [1] = assay: Time-kill kinetics (OD 595 nm); assay type: cell-based, Acinetobacter baumannii; settings: 10 μg/mL
Method: The MIC and MBC levels of octopromycin in A. baumannii were determined using media dilution tests and subcultures, respectively, according to the guidelines of the Clinical and Laboratory Standards Institute (CLSI, 2008 M27-A3). Several concentrations of octopromycin (0, 5, 10, 25, 50, 100, and 200 μg/mL) were tested as standard antibiotics (positive control) together with chloramphenicol (10 μg/mL, Sigma-Aldrich, USA) acting on A. baumannii growth and the MBC of chloramphenicol was confirmed according to the same procedure. The MIC was determined as the minimum concentration required to inhibit visual growth of A. baumannii. […] For analysis of time-kill kinetics, A. baumannii was cultured with octopromycin at various concentrations (0, 25, 50, 100, and 200 μg/mL) in the TSA medium at 25° C., and at different time intervals (0, 3, 6, 9, 12, 18, and 21 h), the absorbance was measured at 595 nm using a microplate reader (Bio-Rad, Saint Louis, USA) to confirm an inhibitory effect after culturing.

A. baumannii [2] = assay: Propidium iodide (PI) uptake / FDA staining membrane permeability assay (CLSM); assay type: cell-based, Acinetobacter baumannii; settings: 10 μg/mL, positive control
Method: Propidium iodide (PI) uptake assay was performed to evaluate an effect of octopromycin on association with the membrane permeability and apoptosis of A. baumannii. The PI was a red fluorescent nuclear and chromosome counter dye that indicated changes in cell membrane permeability, and was used to detect the presence of dead cells and simultaneously observe live cells by observing green fluorescence (FDA). A. baumannii treated with octopromycin at MIC; 50 μg/mL and MBC; 200 μg/mL levels and control cell suspensions were centrifuged (5000 rpm for 2 minutes), washed with PBS and the pellets were suspended in PBS. Subsequently, the cells were cultured with 20 μg/mL of PI (Sigma Aldrich, USA) and 8 μg/mL of FDA (Sigma Aldrich, USA) at 25° C. for 30 minutes in the dark, and finally, the remaining dye was washed with PBS. Finally, a 5 μL drop of each suspension was placed on a cover slip and fluorescence images were observed using a CLSM integrated with a scan head on an Axiovert 200M inverted microscope (Carl Zeiss, Germany).

A. baumannii biofilm = assay: microbe, parasite or virus in culture; assay type: cell-based; settings: Acinetobacter baumannii; 10 μg/mL, positive control; read-out: biofilm formation inhibition
Method: In order to investigate an effect of octopromycin on the biofilm of A. baumannii, analysis for biofilm formation inhibition and eradication was performed.
To examine the inhibitory effect of an octopromycin peptide on biofilm formation, A. baumannii was cultured in TSB. The bacteria were diluted to 5×10^5 CFU/mL in a TSB medium, then 97.5 mL and 90 mL of bacterial suspensions were mixed with 2.5 mL and 10 mL of peptides, respectively, to reach 50 μg/mL (MIC) and 200 μg/mL (MBC), and cultured on a 96-well plate for 24 hours. Then, the supernatant was carefully removed, and the formed biofilm was fixed with 100% methanol for 10 minutes. After methanol was removed, the biofilm was stained with 0.1% crystal violet for 30 minutes. Subsequently, the plate was washed 3 times with distilled water. Finally, the biofilm was completely dissolved in 95% ethanol and absorbance was measured at 495 nm using a microplate reader (Bio-Rad, USA).

mouse red blood cells = assay type: cell-based
Method: Systemic application of octopromycin as an antibiotic requires low toxicity to red blood cells. Accordingly, an in vitro hemolysis assay was performed using mouse red blood cells […].
The hemolytic activity of the peptide was evaluated using mouse red blood cells (RBC). The RBCs were washed 3 times with phosphate buffered saline (PBS) until the supernatant was clear. Different concentrations of octopromycin (0, 25, 50, 100, 200, 300 μg/mL) were added to 1.5 ml Eppendorf tubes. The RBCs were added at a final concentration of 8% (v/v) in a total volume of 500 μL. The RBCs were incubated for 1 hour, and then centrifuged for 10 minutes and the absorbance of the supernatant was measured at 414 nm.
Percent hemolysis was calculated using Equation:
Hemolysis (%)=(A414 of Peptide−A414 of PBS)/(A414 of Triton−A414 of PBS)×100

With `O=C(N[C@H](CO)[C@H](O)c1ccc([N+](=O)[O-])cc1)C(Cl)Cl` [chloramphenicol, reference compound] the “growth inhibition (time-kill kinetics)” value (A. baumannii [1]) was “growth inhibition was similar to that of 50 μg/mL of octopromycin”, the “membrane permeability (PI/FDA staining)” value (A. baumannii [2]) was “high membrane permeability” and the inhibition at 10 µg/mL (A. baumannii biofilm) was 85.9%.

For Triton X-100, the hemolysis (mouse red blood cells) was 100%.
